Experiment [1] concerns the target T1, Metabotropic glutamate receptor 5 (Homo sapiens, UniProt P41594). Nature of the experiment: Non-competitive antagonist activity at mGluR5. It counts as functional.
Target sequence in this assay (P41594 whole entry): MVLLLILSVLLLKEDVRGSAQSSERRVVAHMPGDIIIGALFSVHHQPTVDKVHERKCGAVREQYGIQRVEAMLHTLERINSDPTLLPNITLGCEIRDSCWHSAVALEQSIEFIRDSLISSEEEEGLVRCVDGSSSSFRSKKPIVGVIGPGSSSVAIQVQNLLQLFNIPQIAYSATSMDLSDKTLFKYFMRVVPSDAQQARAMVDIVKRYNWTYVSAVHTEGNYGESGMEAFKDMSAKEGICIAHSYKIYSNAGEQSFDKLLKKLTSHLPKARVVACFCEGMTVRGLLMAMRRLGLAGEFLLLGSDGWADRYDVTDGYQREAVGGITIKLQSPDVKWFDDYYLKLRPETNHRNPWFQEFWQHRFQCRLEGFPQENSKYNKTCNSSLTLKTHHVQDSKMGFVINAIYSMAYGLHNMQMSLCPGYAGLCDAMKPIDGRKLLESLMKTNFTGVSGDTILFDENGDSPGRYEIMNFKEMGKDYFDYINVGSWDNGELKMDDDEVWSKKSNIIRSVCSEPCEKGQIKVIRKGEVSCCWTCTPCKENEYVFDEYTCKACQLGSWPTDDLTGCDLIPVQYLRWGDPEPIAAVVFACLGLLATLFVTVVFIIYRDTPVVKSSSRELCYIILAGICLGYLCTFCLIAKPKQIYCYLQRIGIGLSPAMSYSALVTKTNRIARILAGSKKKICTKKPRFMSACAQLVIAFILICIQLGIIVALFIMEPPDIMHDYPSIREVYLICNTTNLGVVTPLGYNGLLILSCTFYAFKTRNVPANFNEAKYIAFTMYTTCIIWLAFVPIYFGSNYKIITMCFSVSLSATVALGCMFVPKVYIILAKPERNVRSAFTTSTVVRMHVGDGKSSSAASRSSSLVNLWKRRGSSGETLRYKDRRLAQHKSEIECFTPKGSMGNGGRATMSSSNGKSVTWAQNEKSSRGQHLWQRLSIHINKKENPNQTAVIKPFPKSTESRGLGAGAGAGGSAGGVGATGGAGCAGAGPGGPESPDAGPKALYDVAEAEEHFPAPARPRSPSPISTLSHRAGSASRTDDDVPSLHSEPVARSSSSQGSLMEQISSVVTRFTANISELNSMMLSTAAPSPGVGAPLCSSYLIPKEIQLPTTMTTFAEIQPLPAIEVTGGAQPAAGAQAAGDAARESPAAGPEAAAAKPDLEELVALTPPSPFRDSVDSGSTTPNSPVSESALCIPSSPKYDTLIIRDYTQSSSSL
The target of experiment [2] is T1, Metabotropic glutamate receptor 5. Put plainly: Non-competitive antagonist activity at mGluR5 at 30 uM relative to glutamate. It counts as functional. On the set-up: scale not given: the % may be the effect or the level left.
Target sequence in this assay (P41594 21-1212 limits assumed): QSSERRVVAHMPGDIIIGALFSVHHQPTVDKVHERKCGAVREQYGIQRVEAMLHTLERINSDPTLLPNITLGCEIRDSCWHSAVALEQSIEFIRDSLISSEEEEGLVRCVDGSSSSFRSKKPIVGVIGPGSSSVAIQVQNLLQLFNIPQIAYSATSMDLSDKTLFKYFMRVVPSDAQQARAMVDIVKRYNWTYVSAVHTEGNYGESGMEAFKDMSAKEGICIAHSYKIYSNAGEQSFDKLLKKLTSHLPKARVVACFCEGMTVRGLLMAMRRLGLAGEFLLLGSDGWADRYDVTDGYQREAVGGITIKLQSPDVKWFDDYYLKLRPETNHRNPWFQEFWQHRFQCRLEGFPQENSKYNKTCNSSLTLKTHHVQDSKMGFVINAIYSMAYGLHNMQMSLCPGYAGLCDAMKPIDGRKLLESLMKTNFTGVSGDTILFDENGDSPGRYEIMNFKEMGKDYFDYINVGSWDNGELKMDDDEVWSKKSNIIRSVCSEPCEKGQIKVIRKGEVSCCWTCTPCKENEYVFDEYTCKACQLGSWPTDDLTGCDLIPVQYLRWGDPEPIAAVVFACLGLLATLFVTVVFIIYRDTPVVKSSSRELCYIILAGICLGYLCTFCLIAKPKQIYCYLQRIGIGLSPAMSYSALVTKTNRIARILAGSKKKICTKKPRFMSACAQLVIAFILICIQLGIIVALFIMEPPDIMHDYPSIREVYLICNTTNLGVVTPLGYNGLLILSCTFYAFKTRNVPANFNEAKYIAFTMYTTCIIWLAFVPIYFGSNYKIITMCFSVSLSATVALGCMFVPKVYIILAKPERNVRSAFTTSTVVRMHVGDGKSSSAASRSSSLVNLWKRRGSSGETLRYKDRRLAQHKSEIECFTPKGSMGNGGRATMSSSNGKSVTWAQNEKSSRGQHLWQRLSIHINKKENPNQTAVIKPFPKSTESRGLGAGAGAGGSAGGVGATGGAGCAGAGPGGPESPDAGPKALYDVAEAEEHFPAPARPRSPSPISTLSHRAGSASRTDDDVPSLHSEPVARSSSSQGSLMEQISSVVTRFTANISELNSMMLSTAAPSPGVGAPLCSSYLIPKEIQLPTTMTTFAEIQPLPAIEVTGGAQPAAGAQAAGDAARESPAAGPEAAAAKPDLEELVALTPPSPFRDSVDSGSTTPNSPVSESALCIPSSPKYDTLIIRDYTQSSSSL
For experiment [3] the target is unchanged. Nature of the experiment: Positive allosteric modulation of mGluR5 at 30 uM relative to glutamate.
Target sequence in this assay (P41594 21-1212 limits assumed): as above
Experiment [4] shares this target. Nature of the experiment: Positive allosteric modulation of mGluR5.
Target sequence in this assay (P41594 whole entry): as the sequence (P41594 whole entry) above
Experiment [5] concerns the target Metabotropic glutamate receptor 4 (Homo sapiens, UniProt Q14833). Put plainly: Inhibition of mGluR4.
The target in experiment [6] is Metabotropic glutamate receptor 2 (Homo sapiens, UniProt Q14416). Nature of the experiment: Inhibition of mGluR2.
Experiment [7] has as its target Metabotropic glutamate receptor 8 (Homo sapiens, UniProt O00222). Nature of the experiment: Inhibition of mGluR8.
In experiment [8] the target is Metabotropic glutamate receptor 7 (Homo sapiens, UniProt Q14831). Put plainly: Inhibition of mGluR7.
Chain of Metabotropic glutamate receptor 7 (Q14831 whole entry): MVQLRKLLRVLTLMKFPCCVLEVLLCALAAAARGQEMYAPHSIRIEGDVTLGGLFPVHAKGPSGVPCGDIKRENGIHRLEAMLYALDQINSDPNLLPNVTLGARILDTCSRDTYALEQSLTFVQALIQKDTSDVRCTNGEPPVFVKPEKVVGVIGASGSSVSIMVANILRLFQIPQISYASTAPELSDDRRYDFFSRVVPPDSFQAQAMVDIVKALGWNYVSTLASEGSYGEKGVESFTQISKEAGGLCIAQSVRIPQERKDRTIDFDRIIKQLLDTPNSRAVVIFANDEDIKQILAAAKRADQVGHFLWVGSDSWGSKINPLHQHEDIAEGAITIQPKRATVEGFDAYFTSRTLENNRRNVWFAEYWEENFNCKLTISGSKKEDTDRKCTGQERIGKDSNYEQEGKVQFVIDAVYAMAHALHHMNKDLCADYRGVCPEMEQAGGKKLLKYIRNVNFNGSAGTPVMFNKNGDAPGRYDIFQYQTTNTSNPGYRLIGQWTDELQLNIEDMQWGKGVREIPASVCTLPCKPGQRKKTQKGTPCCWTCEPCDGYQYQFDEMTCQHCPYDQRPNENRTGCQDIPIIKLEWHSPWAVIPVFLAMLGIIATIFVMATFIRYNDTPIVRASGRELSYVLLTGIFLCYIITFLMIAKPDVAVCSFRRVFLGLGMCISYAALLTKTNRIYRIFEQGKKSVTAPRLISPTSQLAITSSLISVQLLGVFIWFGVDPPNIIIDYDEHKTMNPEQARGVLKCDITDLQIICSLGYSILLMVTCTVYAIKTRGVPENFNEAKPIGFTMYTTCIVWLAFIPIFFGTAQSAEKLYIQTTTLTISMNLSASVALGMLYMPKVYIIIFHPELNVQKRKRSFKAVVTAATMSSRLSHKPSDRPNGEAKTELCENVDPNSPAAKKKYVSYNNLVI
For experiment [9], the target named is Metabotropic glutamate receptor 3 (Homo sapiens, UniProt Q14832). Put plainly: Inhibition of mGluR3.
Chain of Metabotropic glutamate receptor 3 (Q14832 whole entry): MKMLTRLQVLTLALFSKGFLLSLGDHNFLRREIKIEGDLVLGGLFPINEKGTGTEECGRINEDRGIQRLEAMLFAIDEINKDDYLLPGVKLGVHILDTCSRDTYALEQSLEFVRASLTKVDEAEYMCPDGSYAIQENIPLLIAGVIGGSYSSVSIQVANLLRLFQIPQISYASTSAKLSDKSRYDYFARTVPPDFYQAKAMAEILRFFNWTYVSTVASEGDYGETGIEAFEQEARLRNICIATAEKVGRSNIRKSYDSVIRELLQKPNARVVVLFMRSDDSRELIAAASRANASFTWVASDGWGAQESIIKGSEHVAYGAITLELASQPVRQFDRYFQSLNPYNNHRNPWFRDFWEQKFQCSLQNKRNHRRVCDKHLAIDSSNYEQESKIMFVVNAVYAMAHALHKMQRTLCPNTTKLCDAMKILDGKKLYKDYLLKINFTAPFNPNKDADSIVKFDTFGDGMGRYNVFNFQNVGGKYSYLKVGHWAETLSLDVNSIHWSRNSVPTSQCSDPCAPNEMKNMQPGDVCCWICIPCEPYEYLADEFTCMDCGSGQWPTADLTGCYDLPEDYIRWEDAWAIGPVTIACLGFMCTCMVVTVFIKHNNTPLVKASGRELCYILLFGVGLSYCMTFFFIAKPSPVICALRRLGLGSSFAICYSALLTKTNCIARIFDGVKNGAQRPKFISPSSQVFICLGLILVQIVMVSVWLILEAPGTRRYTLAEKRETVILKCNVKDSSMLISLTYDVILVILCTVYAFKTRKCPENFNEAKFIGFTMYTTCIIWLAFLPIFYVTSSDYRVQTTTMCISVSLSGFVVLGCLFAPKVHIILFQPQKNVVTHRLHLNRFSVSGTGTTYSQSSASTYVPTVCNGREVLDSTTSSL
The target in experiment [10] is Metabotropic glutamate receptor 1 (Homo sapiens, UniProt Q13255). Nature of the experiment: Inhibition of mGluR1.

With `Cc1cc(C)c2c(N)c(C(=O)c3ccc(F)cc3F)oc2n1`, the IC50 in experiment [1] turned out to be 9.3 µM. Also, the Activity in experiment [2] was 19.4%.
Taken in the same sequence, the figures for `O=C(c1ccco1)N1CCCC2(CCCCC2)C1` were 1.54 µM and 2.64%.
Regarding `O=C(N1CCN(c2ccccc2Cl)CC1)C12CC3CC(CC(C3)C1)C2`, the IC50 in [1] was above 30 µM.
Turning to `O=C(c1cccs1)N1CCCC2(CCCCC2)C1`, the half-inhibitory concentration (IC50) in experiment [1] was determined as 1.18 µM. In [2], this molecule came in with an Activity of 2.69%.
The molecule `O=C(C1CC1)N1CCCC2(CCCCC2)C1` registered an IC50 in [1] above 10 µM. Also, the Activity in experiment [2] came to 40.6%.
In experiment [3], `COCc1c(Cl)c(C)nc2oc(C(=O)c3ccc(F)cc3)c(N)c12` yielded an Activity of 38.3%. The molecule further gave a concentration for a half-maximal effect (EC50) in experiment [4] of 6.5 µM.
On to `Cc1cc(O)nc2oc(C(=O)c3ccc(F)cc3)c(N)c12`, for which, in experiment [3], the Activity was 32.9%.
In the case of `O=C(Cc1cccs1)N1CCCC2(CCCCC2)C1`, the IC50 in experiment [1] was above 10 µM. Besides, the Activity in experiment [2] was 52.1%.
In experiment [3], `Nc1c(C(=O)c2ccc(F)cc2)oc2ncc(Br)cc12` registered an Activity of 73.5%. Besides, in experiment [4], the EC50 was determined as 7.6 µM.
Take `O=C(C1CCC1)N1CCCC2(CCCCC2)C1`: the IC50 in experiment [5], in experiment [6], in experiment [7], in experiment [8], in experiment [9] and in experiment [10] was above 30 µM each time. The molecule also showed an Activity in experiment [2] of 1.12%.
For `O=C(C1CCCC1)N1CCCC2(CCCCC2)C1`, in experiment [1], the IC50 is above 10 µM. In experiment [2], this molecule came in with an Activity of 26.1%.
Taken in the same sequence, the figures for `COc1ccccc1N1CCN(C(=O)C23CC4CC(CC(C4)C2)C3)CC1` were above 10 µM and 52%.
On to `Cc1cc(=O)[nH]c2oc(C(=O)c3ccc(F)cc3)c(N)c12`, for which the EC50 in experiment [4] turned out to be 6.1 µM.
On to `Cc1cc(C(F)(F)F)c2c(N)c(C(=O)c3ccc(F)cc3)oc2n1`, for which, in experiment [1], the IC50 was 0.84 µM. In addition, in experiment [2], the Activity was 1.58%.
The molecule `N#Cc1ccccc1N1CCN(C(=O)C23CC4CC(CC(C4)C2)C3)CC1` returned an Activity in experiment [2] of 3.68%.
In [1], `O=C(c1cccnc1)N1CCCC2(CCCCC2)C1` showed an IC50 above 30 µM.
`Cc1cc(C)c2c(N)c(C(=O)c3ccccc3)oc2n1` showed a concentration for half-maximal inhibition (IC50) in experiment [1] above 10 µM. Besides, the Activity in experiment [2] came out at 36%.
In the case of `O=C(N1CCN(c2cccnc2)CC1)C12CC3CC(CC(C3)C1)C2`, the concentration for half-maximal inhibition (IC50) in [1] is above 10 µM. Moreover, the Activity in experiment [2] was found to be 30.2%.
As for `O=C(N1CCN(c2ccncc2)CC1)C12CC3CC(CC(C3)C1)C2`, the IC50 in experiment [1] is above 30 µM.
`O=C(N1CCN(c2ccccn2)CC1)C12CC3CC(CC(C3)C1)C2` returned a concentration for half-maximal inhibition (IC50) in [1] of 0.99 µM. The same molecule showed an Activity in experiment [2] of 3.75%.
`O=C(c1cnc2ccccc2n1)N1CCCC2(CCCCC2)C1` gave a 50% inhibitory concentration (IC50) in experiment [1] of 5.02 µM. The molecule further yielded an Activity in experiment [2] of 2.39%.
Take `O=C(C1CCCCC1)N1CCCC2(CCCCC2)C1`: the IC50 in experiment [1] is above 30 µM.
As to `Cc1ccc(C(=O)N2CCCC3(CCCCC3)C2)cc1`, the IC50 in experiment [1] is above 10 µM. The molecule also displayed an Activity in [2] of 56.2%.
Regarding `O=C(N1CCN(c2nccs2)CC1)C12CC3CC(CC(C3)C1)C2`, the IC50 in [5], in experiment [6], in experiment [7], in [8] and in experiment [9] was above 30 µM throughout. This molecule also gave an Activity in experiment [2] of 1.16%.
Molecule `O=C(CSc1ccccc1)N1CCCC2(CCCCC2)C1` displayed an Activity in [2] of 4.23%.

The values are drawn from ChEMBL document CHEMBL1781871, “Discovery and SAR of novel mGluR5 non-competitive antagonists not based on an MPEP chemotype” (Bioorg Med Chem Lett, 2009).
